Test [1] concerns the target T1, p53 Y220C (Homo sapiens, UniProt P04637, P309S/R273H/Y220C).
T1 construct: a truncated mutant containing only amino acids 94-312 of p53; made in house; host or cells: E. coli
Put plainly: DNA binding test (HTRF): binding of P53Y220C protein to DNA. The format is biochemical. The note with it: HTRF, activation of p53 Y220C (aa 94-312) binding to biotin DNA. On the procedure:
(§1) In order to detect the ability of the aforementioned compounds to increase the binding of P53Y220C protein to DNA, the binding activity of p53 Y220C was measured by homogeneous time-resolved fluorescence (HTRF). Recombinant His-tagged p53 Y220C for HTRF measurement was expressed in bacteria E. coli. The recombinant protein was a truncated mutant containing only amino acids 94-312 of p53, and its sequence was […] […] VEGNLR […] TFRh[…] […]. The sense strand of the DNA double strand was 5′-[…]-3′, with a biotin tag at the 5′ end for activity assay, and the antisense strand was 5′-[…]-3′ 40 mL of assay buffer (20 mM Tris HCL, pH 7.5, 50 mM NaCl, 2 mM MgCl2, 0.02% Tween 20, 0.01% BSA, 1 mM DTT) was prepared. 10 mM compound was prepared and subjected to 3-fold dilution to obtain 10 dose gradient dilutions of the compound. 20 nL of the compound was added to a 384-well assay plate (PerkinElmer 6007299) using an Echo 655 Liquid Handler. P53Y220C protein was dissolved in assay buffer to reach a final concentration of 150 nM, and 5 μL thereof was added to each well, and incubated at room temperature for 5 min. DNA was dissolved in assay buffer to reach a final concentration of 150 nM, and 5 μL thereof was added to each well, and incubated at room temperature for 15 min. Anti 6HIS-XL665 (Cisbio 61HISXLB) was dissolved in assay buffer to reach a final concentration of 20 nM, and 5 μL thereof was added to each well. Streptavidin-Eu cryptate (Cisbio 610SAKLA) was dissolved in assay buffer to reach a final concentration of 0.625 nM, and 5 μL thereof was added to each well, and incubated at 27° C. for 1 hour. The plate was then read for signal values on an Envision (PerkinElmer 2105-0020) plate reader at 665 nm and 615 nm, respectively. […] Activation rate={(A-C)/(C)}*100%, A=(signal value at 665 nm/signal value at 615 nm); C=average signal of negative control (wherein, negative control referred to 0.1% DMSO).

The next test relates to NUGC-3 cells. Put plainly: NUGC-3 cell proliferation assay (CTG). The note with it: for Compound GI50 (nM)/Reference compound GI50 (nM): multiple ratio of GI50 of the compound to the reference compound; for GI50: Homo sapiens, NUGC-3, 144 h, 6 days, CTG. The format is cell-based, human. On the procedure:
In order to detect the inhibitory effect of the aforementioned compounds on the proliferation ability of NUGC-3 cells, 250 NUGC-3 cells (Nanjing Cobioer Biosciences Co., Ltd., CBP60492) were seeded into a 384-well plate (Corning 3765), 35 μL per well, and incubated overnight in a constant temperature incubator at 37° C. and 5% CO2. Then, 40 nL of the compound was added to the 384-well plate using an Echo 655 Liquid Handler, with a maximum final concentration of 10 μM, 1:3 serial dilutions, and a total of 10 doses. The culture was performed at 37° C. and 5% CO2 for 6 days. The plate was taken out from the incubator and equilibrated at room temperature for 10 minutes. 20 μL of CTG (Promage G7572) was added to each well of the plate according to the platemap. The plate was centrifuged at 1000 rpm for 1 min. The lysis of cells was induced by mixing on a shaker for 2 min. The plate was centrifuged at 1000 rpm for 1 min. Incubation was performed at room temperature for 10 min to stabilize luminescence signals. Luminescence values were recorded by Envision (PerkinElmer 2105-0020). GraphPad 9.0 was used to fit the inhibition rate and compound concentration into a nonlinear regression curve (dose response-variable slope) to calculate GI50, inhibition rate={1−(A−B)/(C−B)}*100%, A=signal value of compound; B=average signal of blank control; C=average signal of negative control (wherein negative control was 0.1% DMSO).

The target in test [2] is T2, p53 Y220C (Homo sapiens, UniProt P04637, Y220C).
T2 construct: a truncated mutant containing only amino acids 94-312 of p53; made in house; host or cells: E. coli
Put plainly: DNA binding test (HTRF): binding of P53Y220C protein to DNA. The format is biochemical. As to conditions: multiple ratio of EC50 of the compound to the reference compound, DNA binding test. On the procedure: as §1

SMILES strings stand for the structures. Marks after values point to notes of the source that are not given here.

In the case of `CONC(=O)c1ccc(NCC#Cc2nc3c(N[C@@H]4CC[C@@H](N5CC6(COC6)C5)C[C@@H]4F)cccn3c2CC(F)(F)F)c(OC)c1` [Compound 53], the EC50 on p53 Y220C [1] was under 0.1 µM. On to `CNC(=O)c1ccc(NCC#Cc2nc3c(NC4CC[C@@H](N5CC6(CCCCC6)C5)C[C@@H]4F)cccn3c2CC(F)(F)F)c(OC)c1` (stereo partly drawn) [Compound 45], for which the “Compound GI50 (nM)/Reference compound GI50 (nM)” value (shortened to “Compound GI50”) in the test on NUGC-3 cells is recorded as “C (C: GI50 of the compound ≥ 3 * GI50 of the reference compound)”. Moreover, the “Compound EC50 (nM)/Reference compound EC50 (nM)” value (shortened to “Compound EC50”) at p53 Y220C [2] is “B (B: EC50 of the reference compound<EC50 of the compound≤3.0*EC50 of the reference compound)”. `CNC(=O)c1ccc(NCC#Cc2nc3c(N[C@@H]4CC[C@@H](N5CC6(COC6)C5)C[C@@H]4F)cccn3c2CC(F)(F)F)c(OCF)c1` [Compound 58] returned an EC50 at p53 Y220C [1] of under 0.1 µM. Take `CNC(=O)c1ccc(NCC#Cc2cc3c(N[C@@H]4CCN(C)C[C@@H]4F)ccnn3c2CC(F)(F)F)c(OC)c1` [Compound 85]: in the test with NUGC-3 cells, the “Compound GI50” value is listed as “C (C: GI50 of the compound ≥ 3 * GI50 of the reference compound)”. The “Compound EC50” value at p53 Y220C [2] is “C (C: EC50 of the compound≥3*EC50 of the reference compound)”. With `CNC(=O)c1ccc(NCC#Cc2nc3c(N[C@@H]4CC[C@@H](N5CC6(COC6)C5)C[C@@H]4F)cccn3c2CC(F)(F)F)c(OC2CC2)c1` [Compound 57], at p53 Y220C [1], the EC50 is under 0.1 µM. In the case of `CNC(=O)c1ccc(NCC#Cc2nc3c(N[C@@H]4CCC(N5CCCCC5)C[C@@H]4F)cccn3c2CC(F)(F)F)c(OC)c1` (stereo partly drawn) [Compound 43], the “Compound GI50” value in the test with NUGC-3 cells is recorded as “C (C: GI50 of the compound ≥ 3 * GI50 of the reference compound)”. Besides, on p53 Y220C [2], the “Compound EC50” value was “C (C: EC50 of the compound≥3*EC50 of the reference compound)”. The corresponding values for `CNC(=O)c1ccc(NCC#Cc2nc3c(NC4CC[C@@H](N5CC6(COC6)C5)C[C@@H]4F)cccn3c2CC(F)(F)F)c(OCCF)c1` (stereo partly drawn) [Compound 63] are “C (C: GI50 of the compound ≥ 3 * GI50 of the reference compound)” and “B (B: EC50 of the reference compound<EC50 of the compound≤3.0*EC50 of the reference compound)”. Compound `CNC(=O)c1ccc(NCC#Cc2nc3c(N[C@@H]4CC[C@@H](N5CCCC5)C[C@@H]4F)cccn3c2CC(F)(F)F)c(OC)c1` [Compound 41] yielded an EC50 on p53 Y220C [1] of under 0.1 µM.

`COc1cc(C(=O)NCC(F)F)ccc1NCC#Cc1nc2c(NC3CC[C@@H](N4CC5(COC5)C4)C[C@@H]3F)cccn2c1CC(F)(F)F` (stereo partly drawn) [Compound 55]: the “Compound GI50” value with NUGC-3 cells is “C (C: GI50 of the compound ≥ 3 * GI50 of the reference compound)”. In addition, the “Compound EC50” value at p53 Y220C [2] is “B (B: EC50 of the reference compound<EC50 of the compound≤3.0*EC50 of the reference compound)”. For `CNC(=O)c1ccc(NCC#Cc2nc3c(NC4CC[C@@H](N5CCCC5)C[C@@H]4F)cccn3c2CC(F)(F)F)c(OC)c1` (stereo partly drawn) [Compound 41], in the test on NUGC-3 cells, the GI50 is under 1 µM and the “Compound GI50” value is on record as “B (B: GI50 of the reference compound < GI50 of the compound ≤ 3.0 * GI50 of the reference compound)”. Also, the “Compound EC50” value at p53 Y220C [2] was “B (B: EC50 of the reference compound<EC50 of the compound≤3.0*EC50 of the reference compound)”. Taken in the same sequence, the figures for `CNC(=O)c1ccc(NCC#Cc2nc3c(NC4CC[C@@H](N5CC6(CCOCC6)C5)C[C@@H]4F)cccn3c2CC(F)(F)F)c(OC)c1` (stereo partly drawn) [Compound 46] were under 1 µM, “B (B: GI50 of the reference compound < GI50 of the compound ≤ 3.0 * GI50 of the reference compound)” and “A (A: EC50 of the compound≤EC50 of the reference compound)”.

Regarding `CNC(=O)c1ccc(NCC#Cc2cc3c(NC4CC[C@@H](N5CC6(COC6)C5)C[C@@H]4F)ccnn3c2CC(F)(F)F)c(OC)c1` (stereo partly drawn) [Compound 68], the “Compound GI50” value with NUGC-3 cells is reported as “C (C: GI50 of the compound ≥ 3 * GI50 of the reference compound)”. The “Compound EC50” value on p53 Y220C [2] is on record as “C (C: EC50 of the compound≥3*EC50 of the reference compound)”. Taken in the same sequence, the figures for `CNC(=O)c1ccc(NCC#Cc2nc3c(NC4CC[C@@H](N5CC6(COC6)C5)C[C@@H]4F)cccn3c2CC(F)(F)F)c(OCC(F)F)c1` (stereo partly drawn) [Compound 62] were “C (C: GI50 of the compound ≥ 3 * GI50 of the reference compound)” and “B (B: EC50 of the reference compound<EC50 of the compound≤3.0*EC50 of the reference compound)”.

For the compound `CONC(=O)c1ccc(NCC#Cc2nc3c(NC4CC[C@@H](N5CC6(COC6)C5)C[C@@H]4F)cccn3c2CC(F)(F)F)c(OC)c1` (stereo partly drawn) [Compound 53], in the test with NUGC-3 cells, the GI50 is under 1 µM and the “Compound GI50” value was “C (C: GI50 of the compound ≥ 3 * GI50 of the reference compound)”. The “Compound EC50” value at p53 Y220C [2] is “A (A: EC50 of the compound≤EC50 of the reference compound)”. Consider `CNC(=O)c1ccc(NCC#Cc2nc3c(NC4CC[C@@H](N5CC6(COC6)C5)C[C@@H]4F)cccn3c2CC(F)(F)F)c(OCC(F)(F)F)c1` (stereo partly drawn) [Compound 59], for which the “Compound GI50” value in the test on NUGC-3 cells is given as “C (C: GI50 of the compound ≥ 3 * GI50 of the reference compound)”. In addition, the “Compound EC50” value at p53 Y220C [2] is on record as “B (B: EC50 of the reference compound<EC50 of the compound≤3.0*EC50 of the reference compound)”. Taken in the same sequence, the figures for `COc1cc(NCC#Cc2nc3c(NC4CCN(C)CC4)cccn3c2CC(F)(F)F)c(NC(C)=O)cn1` [Compound 26] were “C (C: GI50 of the compound ≥ 3 * GI50 of the reference compound)” and “C (C: EC50 of the compound≥3*EC50 of the reference compound)”. The corresponding values for `CNC(=O)c1ccc(NCC#Cc2nc3c(NC4CC[C@@H](N5CC6(COC6)C5)C[C@@H]4F)cccn3c2CC(F)(F)F)c(OC2COC2)c1` (stereo partly drawn) [Compound 60] are “C (C: GI50 of the compound ≥ 3 * GI50 of the reference compound)” and “B (B: EC50 of the reference compound<EC50 of the compound≤3.0*EC50 of the reference compound)”. Compound `CNC(=O)c1ccc(NCC#Cc2nc3c(N[C@@H]4CC[C@@H](N5CC6(CCOCC6)C5)C[C@@H]4F)cccn3c2CC(F)(F)F)c(OC)c1` [Compound 46] registered an EC50 on p53 Y220C [1] of under 0.1 µM. Same read-out and setting: in the case of `CNC(=O)c1ccc(NCC#Cc2nc3c(N[C@@H]4CC[C@@H](N5CC6(CCC6)C5)C[C@@H]4F)cccn3c2CC(F)(F)F)c(OC)c1` [Compound 42] it was under 0.1 µM. On to `CNC(=O)c1ccc(NCC#Cc2nc3c(NC4CC[C@@H](N5CC6(COC6)C5)C[C@@H]4F)cccn3c2CC(F)(F)F)c(OC2CCC2)c1` (stereo partly drawn) [Compound 61], for which the “Compound GI50” value with NUGC-3 cells was “C (C: GI50 of the compound ≥ 3 * GI50 of the reference compound)”. Further, on p53 Y220C [2], the “Compound EC50” value is given as “B (B: EC50 of the reference compound<EC50 of the compound≤3.0*EC50 of the reference compound)”. Regarding `COc1cc(C(=O)NC2CC(F)C2)ccc1NCC#Cc1nc2c(NC3CC[C@@H](N4CC5(COC5)C4)C[C@@H]3F)cccn2c1CC(F)(F)F` (stereo partly drawn) [Compound 56], the “Compound GI50” value in the test with NUGC-3 cells is recorded as “C (C: GI50 of the compound ≥ 3 * GI50 of the reference compound)”. In addition, the “Compound EC50” value on p53 Y220C [2] is “C (C: EC50 of the compound≥3*EC50 of the reference compound)”. Consider `CNC(=O)c1ccc(NCC#Cc2cc3c(NC4CC[C@@H](N5CC6(COC6)C5)C[C@@H]4F)cccn3c2CC(F)(F)F)c(OC)c1` (stereo partly drawn) [Compound 65], for which, in the test with NUGC-3 cells, the GI50 is under 1 µM and the “Compound GI50” value is listed as “A (A: GI50 of the compound ≤ GI50 of the reference compound)”. In addition, the “Compound EC50” value at p53 Y220C [2] is listed as “B (B: EC50 of the reference compound<EC50 of the compound≤3.0*EC50 of the reference compound)”.

(Values after US20260132128A1, “COMPOUND FOR RECOVERING P53 MUTATION FUNCTION AND USE THEREOF” (SHENZHEN ZHONGGE BIOLOGICAL TECHNOLOGY CO., LTD., priority 2022, published 2026).)
